Read-outs that look alike come from different tables or passages of the source.
Key:
Assay type in all cases: in vivo
[1] = system: Pseudoperonospora cubensis; assay: Cucumber downy mildew (PSPECU) disease control on cucumber seedlings; conditions: 1DP test at 100 ppm
Description: Technical grades of materials were dissolved in acetone, which were then mixed with nine volumes of water containing 110 ppm Triton X-100. The fungicide solutions were applied onto wheat seedlings using an automated booth sprayer to run-off. All sprayed plants were allowed to air dry prior to further handling. All fungicides were evaluated using the aforementioned method for their activity vs. all target diseases, unless stated otherwise. Wheat leaf blotch and brown rust activity were also evaluated using track spray applications, in which case the fungicides were formulated as EC formulations, containing 0.1% Trycol 5941 in the spray solutions. Example H: Evaluation of Fungicidal Activity: Cucumber Downy Mildew (Pseudoperonospora cubensis; Bayer Code […]) Cucumber seedlings (variety Bush Pickle) were grown in soil-less Metro mix, with one plant per pot, and used in the test when 12 to 14 days old. Plants were inoculated with a spore suspension 24 hr following fungicide treatments. […] After inoculation the plants were kept in a dew room at 22° C. with 100% relative humidity for 24 hr to permit spores to germinate and infect the leaf. The plants were then transferred to a greenhouse set at 20° C. until disease was fully expressed. […]

Puccinia triticina = assay: Wheat brown rust (PUCCRT) disease control on wheat seedlings; conditions: Low volume application, 121.5 g/ha
Summary of the method: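 Yuma wheat seedlings (first leaf emerged) sprayed to run-off with compound in acetone plus nine volumes water containing 110 ppm Triton X-100, or track-sprayed as EC formulations with 0.1% Trycol 5941. Rust spores inoculated before or after treatment; overnight dark dew, 22 °C, 100% RH, then greenhouse at 24 °C.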

Zymoseptoria tritici = assay: Leaf blotch of wheat (SEPTTR) disease control on wheat seedlings; conditions: Low volume application, 121.5 g/ha
Phakopsora pachyrhizi = assay: Asian soybean rust (PHAKPA) disease control on soybean seedlings; conditions: Phakopsora pachyrhizi, High volume application at 25 ppm
Summary of the method: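 Compounds in acetone diluted with nine volumes of water containing 0.011% Tween 20, sprayed to run-off on two-week-old Williams 82 soybean seedlings; inoculation 3 days before or 1 day after treatment. Plants held 24 h in dark dew room at 22° C, 100% RH, then at 23° C; disease severity scored on sprayed leaves.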

Uncinula necator = assay: Grape powdery mildew (UNCINE) disease control on grape seedlings; conditions: 1DP test at 100 ppm
Description: Technical grades of materials were dissolved in acetone, which were then mixed with nine volumes of water containing 110 ppm Triton X-100. The fungicide solutions were applied onto wheat seedlings using an automated booth sprayer to run-off. All sprayed plants were allowed to air dry prior to further handling. All fungicides were evaluated using the aforementioned method for their activity vs. all target diseases, unless stated otherwise. Wheat leaf blotch and brown rust activity were also evaluated using track spray applications, in which case the fungicides were formulated as EC formulations, containing 0.1% Trycol 5941 in the spray solutions. Example K: Evaluation of Fungicidal Activity: Grape Powdery Mildew (Uncinula necator; Bayer Code […]) Grape seedlings (variety Carignane) were grown in soil-less Metro mix, with one plant per pot, and used in the test when approximately 1 month old. Plants were inoculated 24 hr after fungicide treatment by shaking spores from infected leaves over test plants. Plants were maintained in a greenhouse set at 20° C. until disease was fully developed. Fungicide formulation, application and disease assessment on sprayed leaves followed the procedures as described in the Example A.

Alternaria solani = assay: Tomato early blight (ALTESO) disease control on tomato plants; conditions: 1DP test at 100 ppm
Description: Technical grades of materials were dissolved in acetone, which were then mixed with nine volumes of water containing 110 ppm Triton X-100. The fungicide solutions were applied onto wheat seedlings using an automated booth sprayer to run-off. All sprayed plants were allowed to air dry prior to further handling. All fungicides were evaluated using the aforementioned method for their activity vs. all target diseases, unless stated otherwise. Wheat leaf blotch and brown rust activity were also evaluated using track spray applications, in which case the fungicides were formulated as EC formulations, containing 0.1% Trycol 5941 in the spray solutions. Example D: Evaluation of Fungicidal Activity: Tomato Early Blight (Alternaria solani; Bayer Code […]) Tomato plants (variety Outdoor Girl) were propagated in soil-less Metro mix, with each pot having one plant, and used when 12 to 14 days old. Test plants were inoculated with an aqueous spore suspension of Alternaria solani 24 hr after fungicide treatments. After inoculation the plants were kept in 100% relative humidity (one day in a dark dew chamber followed by two to three days in a lighted dew chamber at 20° C.) to permit spores to germinate and infect the leaf. The plants were then transferred to a growth room at 22° C. for disease to develop. […]

In the case of `COc1ccnc(C(=O)N[C@@H](C)C(=O)O[C@@H](C)[C@@H](C)c2ccccc2C)c1OC(C)=O` [Example 264], the “PSPECU disease control rating” value [1] is reported as “B (≤80)”, the pest or weed control at 121.5 g/ha (Puccinia triticina; 24 h, 1 Day Protectant, read-out: PUCCRT disease control rating, 1DP) is reported as > 80% and the pest or weed control at 121.5 g/ha (Puccinia triticina; 72 h, 3 Day Curative, read-out: PUCCRT disease control rating, 3DC) is reported as > 80%. The pest or weed control at 121.5 g/ha (Zymoseptoria tritici; 24 h, 1 Day Protectant, read-out: SEPTTR disease control rating, 1DP) was < 80%, the pest or weed control at 121.5 g/ha (Zymoseptoria tritici; 72 h, 3 Day Curative, read-out: SEPTTR disease control rating, 3DC) was < 80% and the pest or weed control at 25 ppm (Phakopsora pachyrhizi; 24 h, 1 day protectant, read-out: PHAKPA 1DP (1 Day Protectant) disease control) was > 80%. For the same molecule, the pest or weed control at 25 ppm (Phakopsora pachyrhizi; 72 h, 3 day curative, read-out: PHAKPA 3DC (3 Day Curative) disease control) was > 80%, the “UNCINE disease control rating” value (Uncinula necator) was “A (>80)” and the “ALTESO disease control rating” value (Alternaria solani) was “B (≤80)”.
